Consider 18 compounds from patent US9371294B2, “Cycloalkenyl aryl derivatives for CETP inhibitor” (CHONG KUN DANG PHARMACEUTICAL CORP., priority 2011, dated 2016).

In experiment [1] the test system is golden syrian hamsters. As to the kind of experiment: Test for anti-hyperlipidemia activity in hamsters (blood HDL-c levels). The experiment is classed as in vivo. The note with it: male golden syrian hamsters; 3 mg/kg orally for 5 days; serum HDL-cholesterol 4 hours after last administration; vs vehicle control. An excerpt: […] Test for Anti-Hyderlipidemia Activity in Hamsters
1. Experimental animals As test animals, 8-week-old male golden syrian hamsters were purchased and used in the experimental. The animal facility was kept at constant temperature and constant humidity with a 12-hr dark/12-hr light cycle, and the animals were allowed to access food and water ad libitum.
2. Experimental for Anti-Hyperlipidemia Activity in Hamsters
The test animals were used in the test after an acclimation of 1 week. The test animals were divided according to body weight into several groups, each consisting of 5-8 animals. 3 mg/kg of each test compound (CETP inhibitor) was administered orally to the animals. Each test compounds was suspended in a solvent vehicle that is a solution of 5% ethanol, 10% solutol and 85% deionized water (DW), to be used. Each of test compounds suspended in a solvent vehicle was administered orally to the […] for 5 days. To the control group, a solvent vehicle itself was administered. And then, after 4 hours from the last administration, blood was collected through the cardiac puncture. The collected blood was centrifuged at 3000 rpm for 15 minutes, and the concentration of HDL-cholesterol (Biosystem) in the separated serum was measured using a biochemical analyzer (ILab 300 plus, Instrumentation Laboratory).
3. Statistical Processing
All the results were expressed as mean±SEM, and each test group and the control group were compared using one-way ANOVA test (Dunnett's test, p<0.001) in order to determine the effect of each test group.

Experiment [2] deals with T1, cholesteryl ester transfer protein (Homo sapiens, UniProt P11597).
T1 construct: As a source of cholesteryl ester transfer protein, plasma from healthy humans was used; from tissue; host or cells: plasma from healthy humans
T1 sequence (P11597 18-493): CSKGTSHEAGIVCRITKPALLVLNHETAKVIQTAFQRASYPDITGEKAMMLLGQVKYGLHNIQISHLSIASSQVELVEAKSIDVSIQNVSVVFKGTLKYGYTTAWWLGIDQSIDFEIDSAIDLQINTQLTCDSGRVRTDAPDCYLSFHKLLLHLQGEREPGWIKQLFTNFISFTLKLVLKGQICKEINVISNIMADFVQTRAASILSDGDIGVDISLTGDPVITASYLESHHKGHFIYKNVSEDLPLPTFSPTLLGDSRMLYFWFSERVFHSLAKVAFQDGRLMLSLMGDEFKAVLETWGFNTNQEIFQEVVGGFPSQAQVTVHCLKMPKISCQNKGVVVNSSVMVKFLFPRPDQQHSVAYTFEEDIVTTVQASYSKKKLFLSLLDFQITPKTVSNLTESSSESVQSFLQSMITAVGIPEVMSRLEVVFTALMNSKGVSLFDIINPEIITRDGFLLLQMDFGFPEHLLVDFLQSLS
As to the kind of experiment: In vitro test for the ability to inhibit cholesteryl ester transfer. Format: biochemical. The note with it: [3H]-cholesteryl oleate transfer from rHDL-agarose to LDL; human plasma as CETP source; 37° C.; 16-10000 nM, duplicate. In a few lines: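 Human plasma served as the CETP source, with human LDL (0.25 mg/ml) as acceptor and agarose-immobilised recombinant HDL carrying [3H]-cholesteryl oleate (0.25 mg/ml) as donor, at 37 °C. Compounds were run in duplicate at 16–10000 nM. Transferred radioactivity in the supernatant was counted by beta detection, and IC50 was fitted from the fraction of label transferred to LDL.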

For `COc1ccc(N(C)C(=O)C(C)C)cc1C1=C(CN2C(=O)O[C@H](c3cc(C(F)(F)F)cc(C(F)(F)F)c3)[C@@H]2C)CC(C)(C)CC1` [Compound 113, N-(3-(2-(((4S,5R)-5-(3,5-bis(trifluoromethyl)phenyl)-4-methyl-2-oxooxazolidin-3-yl)methyl)-4,4-dimethylcyclohex-1-enyl)-4-methoxyphenyl)-N-methylisobutyramide], the “HDL-c Increase (%)” value in experiment [1] came to 17%.

The term IC50 denotes the midpoint of a concentration-inhibition curve. A low value points to inhibition by little substance. In turn, `COc1cc(F)c(C(C)C)cc1C1=C(CN2C(=O)O[C@H](c3cc(C(F)(F)F)cc(C(F)(F)F)c3)[C@@H]2C)CN(C(C)C)CC1` [Compound 265, (4S,5R)-5-(3,5-bis(trifluoromethyl)phenyl)-3-((4-(4-fluoro-5-isopropyl-2-methoxyphenyl)-1-isopropyl-1,2,5,6-tetrahydropyridin-3-yl)methyl)-4-methyloxazolidin-2-one] registered an IC50 in experiment [2] of 0.164 µM.

For the compound `COc1cc(F)c(C(=O)C2CC2)cc1C1=C(CN2C(=O)O[C@H](c3cc(C(F)(F)F)cc(C(F)(F)F)c3)[C@@H]2C)CC(C)(C)CC1` [Compound 192, (4S,5R)-5-(3,5-bis(trifluoromethyl)phenyl)-3-((2-(5-(cyclopropanecarbonyl)-4-fluoro-2-methoxyphenyl)-5,5-dimethylcyclohex-1-enyl)methyl)-4-methyloxazolidin-2-one], in experiment [2], the IC50 stood at 0.06 µM.

`COc1ccc(N(C)c2nc(C(F)(F)F)cs2)cc1C1=C(CN2C(=O)O[C@H](c3cc(C(F)(F)F)cc(C(F)(F)F)c3)[C@@H]2C)CC(C)(C)CC1` [Compound 212, (4S,5R)-5-(3,5-bis(trifluoromethyl)phenyl)-3-((2-(2-methoxy-5-(methyl(4-(trifluoromethyl)thiazol-2-yl)amino)phenyl)-5,5-dimethylcyclohex-1-enyl)methyl)-4-methyloxazolidin-2-one]: the IC50 in experiment [2] amounted to 0.08 µM.

`COc1ccc(NS(=O)(=O)C(F)(F)F)cc1C1=C(CN2C(=O)O[C@H](c3cc(C(F)(F)F)cc(C(F)(F)F)c3)[C@@H]2C)CC(C)(C)CC1` [Compound 137, N-(3-(2-(((4S,5R)-5-(3,5-bis(trifluoromethyl)phenyl)-4-methyl-2-oxooxazolidin-3-yl)methyl)-4,4-dimethylcyclohex-1-enyl)-4-methoxyphenyl)trifluoromethanesulfonamide]: the IC50 in experiment [2] was found to be 0.08 µM.

On to `COC(=O)CC(C)(C)c1ccc(OC)c(C2=C(CN3C(=O)O[C@H](c4cc(C(F)(F)F)cc(C(F)(F)F)c4)[C@@H]3C)CC(C)(C)CC2)c1` [Compound 308, methyl 3-(3-(2-(((4S,5R)-5-(3,5-bis(trifluoromethyl)phenyl)-4-methyl-2-oxooxazolidin-3-yl)methyl)-4,4-dimethylcyclohex-1-enyl)-4-methoxyphenyl)-3-methylbutanoate], for which, in experiment [2], the IC50 was determined as 0.007 µM.

`COc1ccc(N(C)S(C)(=O)=O)cc1C1=C(CN2C(=O)O[C@H](c3cc(C(F)(F)F)cc(C(F)(F)F)c3)[C@@H]2C)CC(C)(C)CC1` [Compound 128, N-(3-(2-(((4S,5R)-5-(3,5-bis(trifluoromethyl)phenyl)-4-methyl-2-oxooxazolidin-3-yl)methyl)-4,4-dimethylcyclohex-1-enyl)-4-methoxyphenyl)-N-methylmethanesulfonamide] yielded an IC50 in experiment [2] of 0.06 µM.

As for `COc1ccc(C(C)C)nc1C1=C(CN2C(=O)O[C@H](c3cc(C(F)(F)F)cc(C(F)(F)F)c3)[C@@H]2C)CC(C)(C)CC1` [Compound 366, (4S,5R)-5-(3,5-bis(trifluoromethyl)phenyl)-3-((2-(6-isopropyl-3-methoxypyridin-2-yl)-5,5-dimethylcyclohex-1-enyl)methyl)-4-methyloxazolidin-2-one], in experiment [2], the IC50 is 0.006 µM.

The compound `COc1ccc(N(C)C(=O)C(C)C)cc1C1=C(CN2C(=O)O[C@H](c3cc(C(F)(F)F)cc(C(F)(F)F)c3)[C@@H]2C)CCCC1` [Compound 86, N-(3-(2-(((4S,5R)-5-(3,5-bis(trifluoromethyl)phenyl)-4-methyl-2-oxooxazolidin-3-yl)methyl)cyclohex-1-enyl)-4-methoxyphenyl)-N-methylisobutyramide] had an IC50 in experiment [2] of 0.11 µM.

`CNC(=O)C(C)(C)Cc1ccc(OC)c(C2=C(CN3C(=O)O[C@H](c4cc(C(F)(F)F)cc(C(F)(F)F)c4)[C@@H]3C)CC(C)(C)CC2)c1` [Compound 321, 3-(3-(2-(((4S,5R)-5-(3,5-bis(trifluoromethyl)phenyl)-4-methyl-2-oxooxazolidin-3-yl)methyl)-4,4-dimethylcyclohex-1-enyl)-4-methoxyphenyl)-N,2,2-trimethylpropanamide] came in with a concentration for half-maximal inhibition (IC50) in experiment [2] of 0.104 µM.

On to `COc1ccc(CC2(C(=O)O)CCC2)cc1C1=C(CN2C(=O)O[C@H](c3cc(C(F)(F)F)cc(C(F)(F)F)c3)[C@@H]2C)CC(C)(C)CC1` [Compound 313, 1-(3-(2-(((4S,5R)-5-(3,5-bis(trifluoromethyl)phenyl)-4-methyl-2-oxooxazolidin-3-yl)methyl)-4,4-dimethylcyclohex-1-enyl)-4-methoxybenzyl)cyclobutanecarboxylic acid], for which the IC50 in experiment [2] stood at 0.02 µM.

The compound `COc1cc(C(F)(F)F)c(N(C)C(C)=O)cc1C1=C(CN2C(=O)O[C@H](c3cc(C(F)(F)F)cc(C(F)(F)F)c3)[C@@H]2C)CC(C)(C)CC1` [Compound 210, N-(5-(2-(((4S,5R)-5-(3,5-bis(trifluoromethyl)phenyl)-4-methyl-2-oxooxazolidin-3-yl)methyl)-4,4-dimethylcyclohex-1-enyl)-4-methoxy-2-(trifluoromethyl)phenyl)-N-methylacetamide] gave an IC50 in experiment [2] of 0.008 µM.

`COc1cc(F)c(C(C)C)cc1C1=C(CN2C(=O)O[C@H](c3cc(C(F)(F)F)cc(C(F)(F)F)c3)[C@@H]2C)CN(CC(F)(F)F)CC1` [Compound 268, (4S,5R)-5-(3,5-bis(trifluoromethyl)phenyl)-3-((4-(4-fluoro-5-isopropyl-2-methoxyphenyl)-1-(2,2,2-trifluoroethyl)-1,2,5,6-tetrahydropyridin-3-yl)methyl)-4-methyloxazolidin-2-one] returned an IC50 in experiment [2] of 0.046 µM.

`COc1cc(F)c(C(C)C)cc1C1=C(CN2C(=S)O[C@H](c3cc(C(F)(F)F)cc(C(F)(F)F)c3)[C@@H]2C)CC(C)CC1` (stereo partly drawn) [Compound 26, (4S,5R)-5-(3,5-bis(trifluoromethyl)phenyl)-3-((2-(4-fluoro-5-isopropyl-2-methoxyphenyl)-5-methylcyclohex-1-enyl)methyl)-4-methyloxazolidine-2-thione] displayed an IC50 in experiment [2] of 0.92 µM.

As for `COc1ccc(C(C)C)cc1C1=C(CN2C(=O)O[C@H](c3cc(C(F)(F)F)cc(C(F)(F)F)c3)[C@@H]2C)CC(C)(C)CC1` [Compound 107, (4S,5R)-5-(3,5-bis(trifluoromethyl)phenyl)-3-((2-(5-isopropyl-2-methoxyphenyl)-5,5-dimethylcyclohex-1-enyl)methyl)-4-methyloxazolidin-2-one], the half-maximal inhibitory concentration (IC50) in experiment [2] amounted to 0.004 µM.

The compound `COc1ccc(C(C)O)cc1C1=C(CN2C(=O)O[C@H](c3cc(C(F)(F)F)cc(C(F)(F)F)c3)[C@@H]2C)CCCC1` (stereo partly drawn) [Compound 80, (4S,5R)-5-(3,5-bis(trifluoromethyl)phenyl)-3-((2-(5-(1-hydroxyethyl)-2-methoxyphenyl)cyclohex-1-enyl)methyl)-4-methyloxazolidin-2-one] registered an IC50 in experiment [2] of 0.1 µM.

In the case of `COc1cc(F)c(C(C)C)cc1C1=C(CN2C(=O)O[C@H](c3cc(C(F)(F)F)cc(C(F)(F)F)c3)[C@@H]2C)CN(C(F)(F)F)CC1` [Compound 245, (4S,5R)-5-(3,5-bis(trifluoromethyl)phenyl)-3-((4-(4-fluoro-5-isopropyl-2-methoxyphenyl)-1-(trifluoromethyl)-1,2,5,6-tetrahydropyridin-3-yl)methyl)-4-methyloxazolidin-2-one], it took 0.81 µM to reach half-maximal inhibition in experiment [2] (IC50).

`COc1ccc(CN2CC[C@H](F)C2)cc1C1=C(CN2C(=O)O[C@H](c3cc(C(F)(F)F)cc(C(F)(F)F)c3)[C@@H]2C)CC(C)(C)CC1` [Compound 367, (4S,5R)-5-(3,5-bis(trifluoromethyl)phenyl)-3-((2-(5-(((S)-3-fluoropyrrolidin-1-yl)methyl)-2-methoxyphenyl)-5,5-dimethylcyclohex-1-enyl)methyl)-4-methyloxazolidin-2-one]: half-maximal inhibition in experiment [2] (IC50) was put at 0.083 µM.
